System: LDL fraction
Assay: Oxidation of LDL in vitro (Cu2+-initiated, conjugated diene absorbance at 234 nm, lag phase)
Format: biochemical, human
Conditions: for synergistic antioxidant properties in combination with TRF or purified δ-tocol: non-polyphenolic antioxidants
Method: Oxidation of LDL In Vitro Plasma was obtained from the blood of healthy male and female volunteers and was frozen. […] Tubes were then centrifuged at 400 000 g at 15° C. for 2 hours. The top fraction (chylomicrons+VLDL) was removed. […] After centrifugation at 400 000 g at 15° C. for 2 hours, the LDL fraction floating on the top was collected. […] The fractions were supplemented with ethanolic solutions containing various extracts or with the same volume of pure ethanol (control). Oxidation was initiated by adding freshly-prepared CuSO4 solution (25 μmol/l final concentration) at 37° C. The kinetics of the oxidation of lipoprotein was determined by continuously monitoring the change in absorbance at 234 nm (at 37° C.) on a UV/VIS spectrophotometer, which correlates with the increase in conjugated diene absorbance. […] The time required for the formation of diene is defined as the lag phase. The longer the lag phase the better the protection of LDL against oxidation. […] Concentration-response curves for the LDL oxidation assay were plotted separately for each of the tocol preparations, and for the water-soluble antioxidant preparations (see FIGS. 1 to 5). In each experiment, the tocotrienol content of the tocol preparations (TRF) was standardised to 0.05 or 0.1 μg/ml.

Row | Structure (SMILES) | synergistic antioxidant properties in combination with TRF or purified δ-tocol | relative performance of δ-tocotrienol vs δ-tocopherol in in vitro LDL oxidation studies | synergistic effect with polyphenols in in vitro LDL oxidation studies
1 | O=C1O[C@H]([C@@H](O)CO)C(O)=C1O [ascorbic acid] | not to have synergistic antioxidant properties |  | 
2 | CC(C)=CCC/C(C)=C/CC/C(C)=C/CC[C@]1(C)CCc2cc(O)cc(C)c2O1 [δ-tocotrienol] |  | performs marginally better | remarkable synergistic effects
3 | CC(=O)N[C@@H](CS)C(=O)O [N-acetylcysteine] | same lack of synergy |  | 
4 | O=C(O)CCCCC1CCSS1 (stereo not drawn) [α-lipoic acid] | same lack of synergy |  | 
5 | Cc1cc(O)cc2c1O[C@](C)(CCC[C@H](C)CCC[C@H](C)CCCC(C)C)CC2 [δ-tocopherol] |  |  | remarkable synergistic effects

From patent publication US7452549B2, “Synergistic antioxidant combination of delta tocols and polyphenols” (Nestec S.A., priority 2001, dated 2008)
